This note sets out measurements from PubChem BioAssay (NCI).

Among the test systems are MOLT-4 leukemia; NCI-H23 lung; OVCAR-8 ovarian; ACHN renal; TK-10 renal; 786-0 renal; NCI-H522 lung; SF-295 CNS; OVCAR-5 ovarian; T-47D breast; NCI/ADR-RES ovarian; MDA-MB-435.
Assay in all cases: NCI-60 cell line screen, 48 h

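Dose response: 5 concentrations. Exposure: 48 h. Format: 96-well plates. Endpoint: linear interpolation; highest concentration if not reached. The concentration for full growth arrest is given as TGI.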 Where only a bound is given, the exact number is not on record here.

With `O=c1[nH]c2cc([N+](=O)[O-])ccc2nc1/C(=N/Nc1ccccc1)C(O)c1ccc(C(O)/C(=N\Nc2ccccc2)c2cnc3cc([N+](=O)[O-])ccc3n2)cc1` (centres undefined), the TGI with MOLT-4 leukemia, with NCI-H23 lung, in the assay on OVCAR-8 ovarian, with ACHN renal, in the assay on TK-10 renal and in the assay with 786-0 renal was above 100 µM in each case. In addition, the TGI with NCI-H522 lung was above 100 µM; in the assay on SF-295 CNS it was above 100 µM; with OVCAR-5 ovarian it was 72.9 µM.
For `O=C1O[C@H]2[C@H](O)[C@@H](OC(=O)c3cc(O)c(O)c4c3[C@@H]3C1=CC(=O)C(O)(O)C3(O)O4)[C@H](OC(=O)c1cc(O)c(O)c(O)c1)O[C@@H]2CO` (some centres undefined), the TGI in the assay with T-47D breast, with MOLT-4 leukemia, in the assay on NCI-H23 lung, with NCI/ADR-RES ovarian, in the assay with OVCAR-8 ovarian and in the assay with ACHN renal was above 100 µM each time. Besides, the TGI in the assay with 786-0 renal, with NCI-H522 lung, in the assay with SF-295 CNS, with OVCAR-5 ovarian and with MDA-MB-435 was above 100 µM in each case.
Take `CS(=O)(=O)c1c(N)c2nc(Cl)cn2c2nc3ccccc3nc12`: the TGI in the assay with MOLT-4 leukemia, in the assay on NCI-H23 lung, in the assay on OVCAR-8 ovarian, with ACHN renal, in the assay with 786-0 renal and in the assay on NCI-H522 lung was above 100 µM in each case. Further, the TGI with SF-295 CNS and in the assay with OVCAR-5 ovarian was above 100 µM throughout.
As for `C/C=C\C(CC(=O)NCCC1CN(S(=O)(=O)C(F)(F)F)c2ccccc21)CC(=O)OC` (centres undefined), the TGI in the assay on MOLT-4 leukemia, in the assay with NCI-H23 lung, in the assay on NCI/ADR-RES ovarian, with OVCAR-8 ovarian, in the assay on ACHN renal and in the assay on 786-0 renal was above 100 µM throughout. In addition, the TGI is 52 µM with NCI-H522 lung, above 100 µM with SF-295 CNS and above 100 µM in the assay with OVCAR-5 ovarian.
As for `CC(=O)c1ccc2c(ccc(=O)n2C)c1`, the TGI in the assay with MOLT-4 leukemia, in the assay on NCI-H23 lung, in the assay on OVCAR-8 ovarian, with TK-10 renal, in the assay on 786-0 renal and in the assay on NCI-H522 lung was above 100 µM throughout. Besides, the TGI with SF-295 CNS and in the assay with OVCAR-5 ovarian was above 100 µM each time.
Regarding `CC1(C)CC(=O)C2=C(C1)NC1=C(C(=O)CC(C)(C)C1)C2c1ccc([N+](=O)[O-])cc1`, the TGI in the assay with T-47D breast, in the assay on MOLT-4 leukemia, in the assay on NCI-H23 lung, in the assay with OVCAR-8 ovarian, in the assay with ACHN renal and in the assay on TK-10 renal was above 100 µM throughout. Also, the TGI in the assay with 786-0 renal, in the assay with NCI-H522 lung, with SF-295 CNS, in the assay on OVCAR-5 ovarian and in the assay on MDA-MB-435 was above 100 µM throughout.
Turning to `CCN1C[C@]2(C)CC[C@H](OC)C34C1C([C@H](OC(C)=O)[C@@H]32)[C@@]1(OC)C[C@H](OC)[C@H]2C[C@@H]4[C@@H]1[C@H]2O`, the TGI in the assay on MOLT-4 leukemia, in the assay with NCI-H23 lung, in the assay on OVCAR-8 ovarian, in the assay with ACHN renal, in the assay on TK-10 renal and in the assay on 786-0 renal was above 100 µM in each case. Besides, the TGI in the assay on NCI-H522 lung, in the assay with SF-295 CNS and in the assay with OVCAR-5 ovarian was above 100 µM each time.
`CCN(CC)CCN1C(=O)c2c(c(-c3ccccc3)c3ccccc3c2-c2ccccc2)C1=O`: the TGI in the assay with MOLT-4 leukemia, with NCI/ADR-RES ovarian, in the assay on OVCAR-8 ovarian, in the assay with ACHN renal, with TK-10 renal and in the assay with 786-0 renal was above 100 µM in each case. Besides, the TGI in the assay with NCI-H522 lung, with SF-295 CNS, in the assay on OVCAR-5 ovarian and in the assay on MDA-MB-435 was above 100 µM throughout.
Take `CN1CCCCC(C#N)(c2ccccc2)CC1` (centres undefined): the TGI in the assay with T-47D breast, in the assay on MOLT-4 leukemia, in the assay on NCI-H23 lung, in the assay on NCI/ADR-RES ovarian, with OVCAR-8 ovarian and with ACHN renal was above 100 µM throughout. Besides, the TGI in the assay with TK-10 renal, in the assay with 786-0 renal, in the assay with SF-295 CNS and in the assay with OVCAR-5 ovarian was above 100 µM each time.
For `CCOC(=O)Cc1csc2[n+]1C(=O)/C(=C\c1cccc(Cl)c1Cl)S2`, the TGI came out at 33.5 µM in the assay on MOLT-4 leukemia; 48.9 µM in the assay with NCI-H23 lung; 33.2 µM with NCI/ADR-RES ovarian; 35.9 µM in the assay with OVCAR-8 ovarian; 45.5 µM in the assay on ACHN renal; 55.6 µM in the assay with TK-10 renal. The TGI was 31.2 µM in the assay on 786-0 renal; 41.3 µM with NCI-H522 lung; 46.5 µM in the assay on SF-295 CNS; above 100 µM in the assay on OVCAR-5 ovarian; above 100 µM in the assay on MDA-MB-435.
As for `Cc1cccc(CC(Cc2c(C)cccc2C(=O)O)C(=O)O)c1` (centres undefined), the TGI in the assay with MOLT-4 leukemia, with NCI-H23 lung, in the assay with NCI/ADR-RES ovarian, in the assay on OVCAR-8 ovarian, with ACHN renal and with TK-10 renal was above 100 µM in each case. Besides, the TGI with 786-0 renal, in the assay with NCI-H522 lung, with SF-295 CNS, in the assay with OVCAR-5 ovarian and in the assay on MDA-MB-435 was above 100 µM throughout.
For `CN(CCO)c1nc(N)cc(=O)[nH]1`, the TGI in the assay with MOLT-4 leukemia, in the assay on NCI-H23 lung, in the assay with OVCAR-8 ovarian, in the assay with ACHN renal, with TK-10 renal and in the assay with 786-0 renal was above 100 µM each time. Further, the TGI in the assay on NCI-H522 lung, in the assay with SF-295 CNS and with OVCAR-5 ovarian was above 100 µM in each case.
Turning to `CCN(CC)CCCC(C)Nc1ccnc2ccc3nn(C)nc3c12` (centres undefined), the TGI in the assay on MOLT-4 leukemia, with NCI-H23 lung, in the assay with OVCAR-8 ovarian, in the assay on ACHN renal, in the assay on TK-10 renal and in the assay with 786-0 renal was above 100 µM throughout. Also, the TGI in the assay on SF-295 CNS and in the assay with OVCAR-5 ovarian was above 100 µM each time.
